{"source": "ChEMBL document CHEMBL1201862", "about": "“PubChem BioAssay data set” (2004)", "key": {"[1]": {"biological_target": "Voltage-dependent T-type calcium channel subunit alpha-1H (Homo sapiens, UniProt O95180)", "sequence (O95180 whole entry)": "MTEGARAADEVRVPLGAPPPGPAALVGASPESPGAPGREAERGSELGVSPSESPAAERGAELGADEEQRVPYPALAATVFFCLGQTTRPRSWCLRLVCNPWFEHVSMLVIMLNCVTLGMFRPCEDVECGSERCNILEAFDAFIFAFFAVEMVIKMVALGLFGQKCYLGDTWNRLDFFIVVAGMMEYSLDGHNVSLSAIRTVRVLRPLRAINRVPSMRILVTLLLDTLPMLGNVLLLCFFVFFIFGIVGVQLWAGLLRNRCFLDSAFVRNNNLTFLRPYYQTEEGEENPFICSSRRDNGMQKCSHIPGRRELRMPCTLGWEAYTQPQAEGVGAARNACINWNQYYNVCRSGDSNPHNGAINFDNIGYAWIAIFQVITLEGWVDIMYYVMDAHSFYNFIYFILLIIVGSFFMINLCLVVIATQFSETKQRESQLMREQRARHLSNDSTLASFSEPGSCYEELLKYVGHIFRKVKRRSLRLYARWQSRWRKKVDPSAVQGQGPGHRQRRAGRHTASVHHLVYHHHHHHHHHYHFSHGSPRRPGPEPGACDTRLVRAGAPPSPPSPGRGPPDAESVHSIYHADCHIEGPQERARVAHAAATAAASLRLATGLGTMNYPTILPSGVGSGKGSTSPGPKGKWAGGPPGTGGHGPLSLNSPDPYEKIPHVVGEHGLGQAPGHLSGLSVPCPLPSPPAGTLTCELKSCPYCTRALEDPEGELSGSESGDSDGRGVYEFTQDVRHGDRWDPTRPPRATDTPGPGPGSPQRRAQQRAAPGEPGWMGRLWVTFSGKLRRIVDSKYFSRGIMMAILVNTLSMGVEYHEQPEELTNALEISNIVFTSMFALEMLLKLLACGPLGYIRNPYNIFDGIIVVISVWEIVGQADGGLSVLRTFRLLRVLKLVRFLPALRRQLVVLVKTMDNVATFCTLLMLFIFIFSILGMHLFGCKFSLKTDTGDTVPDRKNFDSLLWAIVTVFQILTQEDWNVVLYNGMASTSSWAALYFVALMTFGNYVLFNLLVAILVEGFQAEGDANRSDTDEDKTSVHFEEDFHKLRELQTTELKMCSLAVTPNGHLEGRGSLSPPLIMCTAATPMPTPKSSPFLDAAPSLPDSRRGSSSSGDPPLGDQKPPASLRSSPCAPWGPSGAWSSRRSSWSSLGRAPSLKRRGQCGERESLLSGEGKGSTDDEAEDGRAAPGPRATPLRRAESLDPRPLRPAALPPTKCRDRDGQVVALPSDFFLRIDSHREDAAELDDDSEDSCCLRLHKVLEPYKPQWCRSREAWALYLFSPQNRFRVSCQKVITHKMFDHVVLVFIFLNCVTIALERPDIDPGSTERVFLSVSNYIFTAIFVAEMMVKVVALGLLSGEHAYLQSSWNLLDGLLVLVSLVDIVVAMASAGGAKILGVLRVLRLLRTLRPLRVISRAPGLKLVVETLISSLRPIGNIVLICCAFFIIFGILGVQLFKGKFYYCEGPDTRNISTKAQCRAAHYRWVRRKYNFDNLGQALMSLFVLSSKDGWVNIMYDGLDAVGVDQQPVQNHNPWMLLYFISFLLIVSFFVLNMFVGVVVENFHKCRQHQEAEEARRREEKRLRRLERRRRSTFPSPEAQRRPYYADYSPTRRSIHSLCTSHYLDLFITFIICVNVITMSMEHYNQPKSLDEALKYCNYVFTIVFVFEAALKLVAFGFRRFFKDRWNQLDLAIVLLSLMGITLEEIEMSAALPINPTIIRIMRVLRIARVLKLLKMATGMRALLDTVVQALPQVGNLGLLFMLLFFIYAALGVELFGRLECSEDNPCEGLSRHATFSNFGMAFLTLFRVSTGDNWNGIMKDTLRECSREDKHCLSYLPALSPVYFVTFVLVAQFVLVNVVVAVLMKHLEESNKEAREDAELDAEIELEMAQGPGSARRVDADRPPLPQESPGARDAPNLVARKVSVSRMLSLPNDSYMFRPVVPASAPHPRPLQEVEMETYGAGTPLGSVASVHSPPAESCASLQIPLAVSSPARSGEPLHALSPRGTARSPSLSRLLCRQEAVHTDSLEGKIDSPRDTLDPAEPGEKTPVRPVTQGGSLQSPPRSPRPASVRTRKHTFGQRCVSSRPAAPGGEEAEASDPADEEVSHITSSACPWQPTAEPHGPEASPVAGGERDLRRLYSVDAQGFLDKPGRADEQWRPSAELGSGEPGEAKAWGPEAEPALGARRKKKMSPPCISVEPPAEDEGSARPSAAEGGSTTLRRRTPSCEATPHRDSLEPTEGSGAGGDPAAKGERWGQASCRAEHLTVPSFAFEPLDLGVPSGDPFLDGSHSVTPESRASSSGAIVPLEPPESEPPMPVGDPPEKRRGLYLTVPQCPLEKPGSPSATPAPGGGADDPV", "assay_type": "functional"}, "[2]": {"assay": "intracellular Trypanosoma cruzi inhibitors in host cells – cell-based, plate reader, cherry-pick samples, set 3, dose response (AID 651818);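 also: compounds incubated with infected cells for about four days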", "assay_type": "functional"}, "[3]": {"biological_target": "T1, DNA repair and recombination protein RAD54-like (Homo sapiens, UniProt Q92698)", "T1 sequence (Q92698 whole entry)": "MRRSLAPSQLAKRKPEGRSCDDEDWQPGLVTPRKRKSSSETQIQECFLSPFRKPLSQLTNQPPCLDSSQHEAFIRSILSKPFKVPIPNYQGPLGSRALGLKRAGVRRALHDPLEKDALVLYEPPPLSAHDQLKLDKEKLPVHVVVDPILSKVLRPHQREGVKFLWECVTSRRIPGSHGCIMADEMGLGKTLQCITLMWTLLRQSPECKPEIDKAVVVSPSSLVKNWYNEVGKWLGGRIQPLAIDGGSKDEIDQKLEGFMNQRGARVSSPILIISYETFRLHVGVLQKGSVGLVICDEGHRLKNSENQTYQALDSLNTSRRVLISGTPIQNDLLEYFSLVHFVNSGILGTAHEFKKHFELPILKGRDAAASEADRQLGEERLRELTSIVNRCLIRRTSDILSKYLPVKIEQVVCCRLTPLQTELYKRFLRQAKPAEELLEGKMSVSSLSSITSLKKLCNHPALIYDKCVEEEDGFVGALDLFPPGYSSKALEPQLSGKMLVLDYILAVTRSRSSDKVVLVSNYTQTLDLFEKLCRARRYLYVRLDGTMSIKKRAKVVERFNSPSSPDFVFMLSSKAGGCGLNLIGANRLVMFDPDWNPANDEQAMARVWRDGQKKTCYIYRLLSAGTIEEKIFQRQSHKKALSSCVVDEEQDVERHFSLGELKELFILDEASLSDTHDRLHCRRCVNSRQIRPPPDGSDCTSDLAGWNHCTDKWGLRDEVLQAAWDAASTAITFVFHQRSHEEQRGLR", "assay": "RAD54 Holliday junction migration blockers – biochemical, fluorescence, cherry-picked samples, dose series, confirmation (AID 651657)", "assay_type": "functional"}, "Phosphomannomutase 2": {"biological_target": "T2, Phosphomannomutase 2 (Homo sapiens, UniProt O15305)", "T2 sequence (O15305 whole entry)": "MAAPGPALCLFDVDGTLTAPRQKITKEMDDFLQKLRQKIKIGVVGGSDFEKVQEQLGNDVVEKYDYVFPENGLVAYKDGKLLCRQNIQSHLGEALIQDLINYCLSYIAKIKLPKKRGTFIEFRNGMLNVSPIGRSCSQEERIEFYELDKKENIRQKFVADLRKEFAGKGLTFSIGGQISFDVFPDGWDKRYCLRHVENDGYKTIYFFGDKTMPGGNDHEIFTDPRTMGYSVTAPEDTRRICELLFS", "assay": "Counter screen SAR assay for PMM2 inhibitors via a fluorescence intensity assay. [Related pubchem assays (depositor defined):AID1545, AID1574]"}, "[4]": {"biological_target": "T3, Mannose-6-phosphate isomerase (Homo sapiens, UniProt P34949)", "T3 sequence (P34949 whole entry)": "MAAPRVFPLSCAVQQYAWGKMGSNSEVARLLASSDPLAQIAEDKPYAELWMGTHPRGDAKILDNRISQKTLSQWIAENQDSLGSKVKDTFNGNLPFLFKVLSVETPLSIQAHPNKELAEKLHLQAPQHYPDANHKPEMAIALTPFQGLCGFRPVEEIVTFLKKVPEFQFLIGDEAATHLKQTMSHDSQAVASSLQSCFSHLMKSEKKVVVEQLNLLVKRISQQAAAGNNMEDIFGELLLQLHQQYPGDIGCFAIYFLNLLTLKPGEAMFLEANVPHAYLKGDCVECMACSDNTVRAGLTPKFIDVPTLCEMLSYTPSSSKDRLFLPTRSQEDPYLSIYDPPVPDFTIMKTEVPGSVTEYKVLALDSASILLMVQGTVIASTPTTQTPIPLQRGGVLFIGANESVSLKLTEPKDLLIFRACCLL", "assay": "phosphomannose isomerase inhibition – biochemical, fluorescence intensity, confirmation (AID 1535)"}, "Fatty acid synthase [5]": {"biological_target": "T4, Fatty acid synthase (Homo sapiens, UniProt P49327)", "T4 sequence (P49327 whole entry)": "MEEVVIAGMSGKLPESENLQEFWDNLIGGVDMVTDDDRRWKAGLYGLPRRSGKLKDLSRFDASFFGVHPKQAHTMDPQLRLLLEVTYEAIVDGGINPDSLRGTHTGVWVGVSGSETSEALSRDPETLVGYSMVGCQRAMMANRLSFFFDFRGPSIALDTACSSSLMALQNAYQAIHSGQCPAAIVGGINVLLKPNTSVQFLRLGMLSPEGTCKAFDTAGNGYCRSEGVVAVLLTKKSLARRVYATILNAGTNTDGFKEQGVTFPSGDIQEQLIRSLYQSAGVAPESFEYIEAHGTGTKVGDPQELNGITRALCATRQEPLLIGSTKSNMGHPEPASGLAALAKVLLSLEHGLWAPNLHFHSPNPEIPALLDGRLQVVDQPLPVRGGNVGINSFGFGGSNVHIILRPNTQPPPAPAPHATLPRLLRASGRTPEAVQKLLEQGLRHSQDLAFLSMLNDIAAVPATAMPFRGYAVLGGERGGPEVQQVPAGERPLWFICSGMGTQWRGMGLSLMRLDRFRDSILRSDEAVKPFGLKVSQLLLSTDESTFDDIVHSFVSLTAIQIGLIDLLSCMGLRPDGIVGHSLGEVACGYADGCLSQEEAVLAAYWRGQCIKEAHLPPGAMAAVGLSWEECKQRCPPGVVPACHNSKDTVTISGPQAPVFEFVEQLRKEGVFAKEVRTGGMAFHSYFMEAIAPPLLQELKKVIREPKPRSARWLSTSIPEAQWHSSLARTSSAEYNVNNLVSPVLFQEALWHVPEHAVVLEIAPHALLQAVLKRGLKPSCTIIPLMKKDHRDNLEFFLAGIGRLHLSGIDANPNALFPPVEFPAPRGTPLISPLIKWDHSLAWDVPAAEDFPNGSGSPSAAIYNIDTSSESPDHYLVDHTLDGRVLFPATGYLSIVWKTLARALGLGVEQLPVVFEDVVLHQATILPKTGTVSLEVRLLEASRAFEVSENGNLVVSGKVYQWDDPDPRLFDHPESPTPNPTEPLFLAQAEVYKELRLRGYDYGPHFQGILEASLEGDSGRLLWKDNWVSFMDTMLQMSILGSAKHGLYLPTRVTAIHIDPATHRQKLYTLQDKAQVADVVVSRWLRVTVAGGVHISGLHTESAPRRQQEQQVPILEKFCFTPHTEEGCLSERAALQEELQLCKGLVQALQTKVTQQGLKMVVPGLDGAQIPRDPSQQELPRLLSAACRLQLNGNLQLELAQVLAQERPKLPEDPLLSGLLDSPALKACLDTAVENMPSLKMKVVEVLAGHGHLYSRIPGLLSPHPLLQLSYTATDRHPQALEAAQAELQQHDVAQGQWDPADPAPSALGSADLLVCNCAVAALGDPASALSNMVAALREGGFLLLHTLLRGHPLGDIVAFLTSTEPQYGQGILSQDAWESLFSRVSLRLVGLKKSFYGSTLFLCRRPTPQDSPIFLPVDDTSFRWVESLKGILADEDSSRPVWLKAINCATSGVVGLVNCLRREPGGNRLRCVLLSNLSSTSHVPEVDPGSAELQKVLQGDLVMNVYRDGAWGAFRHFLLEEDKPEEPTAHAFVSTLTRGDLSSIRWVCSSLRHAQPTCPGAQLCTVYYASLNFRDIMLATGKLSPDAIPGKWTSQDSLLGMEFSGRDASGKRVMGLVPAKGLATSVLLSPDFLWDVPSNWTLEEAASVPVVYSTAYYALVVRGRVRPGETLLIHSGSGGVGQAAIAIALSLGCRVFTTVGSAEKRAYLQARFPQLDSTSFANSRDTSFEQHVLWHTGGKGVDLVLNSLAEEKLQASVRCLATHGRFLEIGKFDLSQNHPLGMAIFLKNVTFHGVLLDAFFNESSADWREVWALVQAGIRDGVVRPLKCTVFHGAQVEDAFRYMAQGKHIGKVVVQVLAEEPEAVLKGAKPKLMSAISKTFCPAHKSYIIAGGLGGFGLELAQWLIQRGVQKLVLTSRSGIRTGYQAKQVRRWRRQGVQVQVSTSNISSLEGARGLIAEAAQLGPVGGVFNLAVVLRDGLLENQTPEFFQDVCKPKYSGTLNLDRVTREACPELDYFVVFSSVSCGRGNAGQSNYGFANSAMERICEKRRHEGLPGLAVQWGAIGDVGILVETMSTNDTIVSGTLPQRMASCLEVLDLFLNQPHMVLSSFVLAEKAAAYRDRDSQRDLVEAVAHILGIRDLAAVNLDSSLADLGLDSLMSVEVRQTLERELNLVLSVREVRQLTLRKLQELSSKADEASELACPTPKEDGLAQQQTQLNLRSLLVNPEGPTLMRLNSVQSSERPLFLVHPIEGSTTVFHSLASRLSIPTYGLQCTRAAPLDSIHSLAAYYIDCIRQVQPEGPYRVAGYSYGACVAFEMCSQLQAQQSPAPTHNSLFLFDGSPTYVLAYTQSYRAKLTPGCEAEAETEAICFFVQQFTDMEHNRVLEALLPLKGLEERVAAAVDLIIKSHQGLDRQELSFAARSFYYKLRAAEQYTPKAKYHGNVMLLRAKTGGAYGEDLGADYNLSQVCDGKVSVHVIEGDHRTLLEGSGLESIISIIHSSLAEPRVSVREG", "assay": "inhibition of human FAS-TE enzyme activity – biochemical, endpoint fluorescence intensity, uHTS hits, dose response (AID 624327);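 also: fluorescence from hydrolysis of an O-methyl fluorescein acyl ester substrate by the enzyme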", "assay_type": "functional"}, "Fatty acid synthase [6]": {"biological_target": "T4, Fatty acid synthase", "assay": "inhibition of human FAS-TE enzyme activity – biochemical, kinetic fluorescence intensity, dose response (AID 624326);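 also: rate of fluorescence rise from hydrolysis of a fluorogenic O-methyl fluorescein ester substrate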", "assay_type": "functional"}, "[7]": {"biological_target": "T5, Short transient receptor potential channel 4 (Mus musculus, UniProt Q9QUQ5)", "T5 sequence (Q9QUQ5 whole entry)": "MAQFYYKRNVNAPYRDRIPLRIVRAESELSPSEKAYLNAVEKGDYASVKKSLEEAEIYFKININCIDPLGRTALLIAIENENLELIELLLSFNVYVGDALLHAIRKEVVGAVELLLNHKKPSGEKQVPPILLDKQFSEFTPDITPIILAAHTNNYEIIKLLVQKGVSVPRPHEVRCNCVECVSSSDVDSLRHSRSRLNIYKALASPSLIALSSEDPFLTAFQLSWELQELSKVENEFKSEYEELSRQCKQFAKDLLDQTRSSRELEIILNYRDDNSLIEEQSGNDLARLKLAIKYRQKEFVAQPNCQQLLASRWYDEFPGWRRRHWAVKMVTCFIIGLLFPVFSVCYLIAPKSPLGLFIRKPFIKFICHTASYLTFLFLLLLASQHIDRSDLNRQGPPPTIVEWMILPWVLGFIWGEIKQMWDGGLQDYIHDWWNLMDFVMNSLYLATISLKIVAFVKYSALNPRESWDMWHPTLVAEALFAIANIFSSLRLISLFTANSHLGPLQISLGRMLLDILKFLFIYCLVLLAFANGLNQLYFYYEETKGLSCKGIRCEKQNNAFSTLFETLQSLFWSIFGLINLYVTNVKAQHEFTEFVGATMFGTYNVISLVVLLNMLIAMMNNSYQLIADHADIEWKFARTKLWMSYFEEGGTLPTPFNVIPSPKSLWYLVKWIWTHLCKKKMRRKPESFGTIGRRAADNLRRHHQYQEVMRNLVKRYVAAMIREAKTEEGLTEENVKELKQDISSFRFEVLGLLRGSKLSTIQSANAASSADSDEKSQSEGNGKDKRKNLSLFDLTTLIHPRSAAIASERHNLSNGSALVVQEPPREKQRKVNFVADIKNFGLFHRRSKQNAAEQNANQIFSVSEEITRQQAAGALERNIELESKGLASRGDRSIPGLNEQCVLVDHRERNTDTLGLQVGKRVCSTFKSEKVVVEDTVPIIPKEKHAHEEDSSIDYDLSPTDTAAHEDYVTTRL", "assay": "calcium entry via TRPC4 opening agents – cell-based, HEK293 TRPC4/mu-opioid, Fluo-4 calcium, dose response (AID 434937)", "assay_type": "functional"}, "[8]": {"biological_target": "T6, Adenosylmethionine-8-amino-7-oxononanoate aminotransferase (Mycobacterium tuberculosis, UniProt P9WQ81)", "T6 sequence (P9WQ81 whole entry)": "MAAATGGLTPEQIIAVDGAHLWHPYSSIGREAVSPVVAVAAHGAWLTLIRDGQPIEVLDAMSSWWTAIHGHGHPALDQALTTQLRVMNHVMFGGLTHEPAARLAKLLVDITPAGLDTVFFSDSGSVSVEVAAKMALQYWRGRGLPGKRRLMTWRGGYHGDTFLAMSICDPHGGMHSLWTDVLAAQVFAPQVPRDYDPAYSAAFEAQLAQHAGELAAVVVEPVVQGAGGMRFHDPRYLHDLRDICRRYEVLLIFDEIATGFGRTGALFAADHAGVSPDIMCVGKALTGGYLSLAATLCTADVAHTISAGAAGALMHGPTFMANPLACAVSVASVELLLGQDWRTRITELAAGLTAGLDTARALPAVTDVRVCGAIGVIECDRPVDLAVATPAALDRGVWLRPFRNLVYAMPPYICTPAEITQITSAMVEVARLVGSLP", "assay": "Mycobacterium tuberculosis BioA enzyme inhibitor Measured in Biochemical System Using Plate Reader - 2163-02_Inhibitor_Dose_CherryPick_Activity.", "assay_type": "functional, Mycobacterium tuberculosis UT205"}, "[9]": {"assay": "P. falciparum Dd2 growth inhibitors, dose response, SYBR Green, cherry-picked samples (AID 1159567)", "assay_type": "functional, cell-based"}}, "note": "Active and inactive are the calls of the source.", "data": [{"compound": "Cc1ccc2[nH]cc(CCNC(=O)Nc3ccccc3)c2c1", "values": [{"measurement": "EC50", "setting": "[1]", "result": "5.23 µM (active)"}]}, {"compound": "CCOC(=O)c1sc(NC(=O)C(CC)OC(=O)C(CC(C)C)NC(=O)c2ccccc2)nc1C", "note": "(stereo not drawn)", "values": [{"measurement": "EC50", "setting": "[1]", "result": "5.2 µM (active)"}]}, {"compound": "C[C@H]1CN([C@@H](C)CO)C(=O)Cc2cc(NC(=O)Nc3ccc(C(F)(F)F)cc3)ccc2O[C@@H]1CN(C)Cc1ccc(C(F)(F)F)cc1", "values": [{"measurement": "AC50", "setting": "[2]", "result": "5.04 µM (active)"}]}, {"compound": "Cc1c(-c2cc(Br)ccc2O)nc2cc3c(cc2c1C)OCO3", "values": [{"measurement": "AC50", "setting": "[3]", "result": "57.5 µM (active)"}]}, {"compound": "Cc1ccc2nc(-n3sc4ccccc4c3=O)sc2c1", "values": [{"measurement": "IC50", "setting": "Phosphomannomutase 2", "result": "> 100 µM (inactive)"}, {"measurement": "IC50", "setting": "[4]", "result": "> 50 µM (inactive)"}]}, {"compound": "Cc1nc2ccc([N+](=O)[O-])cc2c(=O)n1Cc1ccc(Br)cc1", "values": [{"measurement": "IC50", "setting": "Fatty acid synthase [5]", "result": "0.623 µM (active)"}, {"measurement": "IC50", "setting": "Fatty acid synthase [6]", "result": "0.719 µM (active)"}]}, {"compound": "O=C(NCCc1ccccn1)c1ccc(OC2CCN(CCc3ccccc3)CC2)cc1", "values": [{"measurement": "EC50", "setting": "[7]", "result": "1.19 µM (active)"}]}, {"compound": "C[C@@H]1CN([C@@H](C)CO)C(=O)Cc2cc(NC(=O)Cn3cnnn3)ccc2O[C@H]1CN(C)Cc1ccc2c(c1)OCO2", "values": [{"measurement": "AC50", "setting": "[8]", "result": "10.5 µM (active)"}]}, {"compound": "Cc1ccc(S(=O)(=O)N(CC(=O)N2CCN(c3ccccc3F)CC2)C2CCCCC2)cc1", "values": [{"measurement": "EC50", "setting": "[1]", "result": "2.58 µM (active)"}]}, {"compound": "C[C@H](CO)N1C[C@H](C)[C@H](CN(C)Cc2ccccc2)Oc2ccc(NC(=O)Nc3ccc(C(F)(F)F)cc3)cc2C1=O", "values": [{"measurement": "AC50", "setting": "[2]", "result": "6.57 µM (active)"}]}, {"compound": "CCN(CC)CC(=O)Nc1cccc2c1C(=O)c1ccccc1C2=O", "values": [{"measurement": "AC50", "setting": "[3]", "result": "100 µM (inactive)"}]}, {"compound": "O=C(NCCCN1CCN(c2cccc(Cl)c2)CC1)C1(S(=O)(=O)c2ccc(Cl)cc2)CC1", "values": [{"measurement": "EC50", "setting": "[1]", "result": "6.17 µM (active)"}]}, {"compound": "C[C@H](CO)N1C[C@H](C)[C@@H](CN(C)Cc2ccc(-c3ccccc3)cc2)Oc2c(NC(=O)c3ccc(-c4nccs4)cc3)cccc2C1=O", "values": [{"measurement": "AC50", "setting": "[9]", "result": "5.28 µM (active)"}, {"measurement": "AC50", "setting": "[2]", "result": "3.54 µM (active)"}]}, {"compound": "Cc1ccccc1Cn1c(C)nc2ccc([N+](=O)[O-])cc2c1=O", "values": [{"measurement": "IC50", "setting": "Fatty acid synthase [5]", "result": "9.84 µM (active)"}, {"measurement": "IC50", "setting": "Fatty acid synthase [6]", "result": "7.08 µM (active)"}]}]}
